Laboratory results reported in patent US10899754B2, “Modulators of indoleamine 2,3-dioxygenase” (GLAXOSMITHKLINE INTELLECTUAL PROPERTY DEVELOPMENT LIMITED, priority 2016, dated 2021).

Experiments:
Format in all cases: cell-based
[1] = tested on: human epithelial HeLa cells; assay: HeLa cytotoxicity assay (CellTiter-Glo); conditions: pCC50
Summary of the method: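 HeLa cells (5,000/well) stimulated with 10 nM IFN-γ, exposed to 11-point 3-fold compound dilutions for 2 days at 37 °C; viability by CellTiter-Glo ATP luminescence. Normalized to cell-free (100% cytotoxicity) and stimulated-cell DMSO (0%) controls; four-parameter fit gives pCC50.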

[2] = tested on: human peripheral blood mononuclear cells (PBMC); assay: PBMC cytotoxicity assay (CellTiter-Glo); conditions: 2 days, pCC50
Summary of the method: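 Human PBMC (50,000 cells/well) stimulated with IFN-γ 100 ng/ml and LPS 50 ng/ml were exposed to 11-point 3-fold compound dilutions for 2 days at 37 °C, 5% CO2. Viability read by CellTiter-Glo ATP luminescence and normalized to no-cell and stimulated-DMSO controls. XC50 derived by four-parameter fit.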

[3] = biological target: T1, indoleamine 2, 3-dioxygenase (IDO1) (Homo sapiens, UniProt P14902); assay: IDO1 PBMC RapidFire MS assay (kynurenine detection by mass spectrometry); parameters: to induce the expression of indoleamine 2, 3-dioxygenase (IDO1); host or cells: human PBMC stimulated with IFN-gamma and LPS; conditions: human PBMC stimulated with IFN-γ and LPS, 2 days, pIC50, read-out: PBMC PXC50 (converted)
Summary of the method: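 PBMCs (50,000 cells/well) stimulated with IFN-γ 100 ng/ml plus LPS 50 ng/ml, treated with 11-point 3-fold compound series for 2 days at 37° C. Supernatant kynurenine measured by RapidFire MS, normalised to internal standard; parallel cytotoxicity by CellTiter-Glo luminescence; curves fitted for XC50.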

[4] = biological target: T1, indoleamine 2, 3-dioxygenase (IDO1); assay: IDO1 HeLa RapidFire MS assay (kynurenine detection by mass spectrometry); parameters: to induce the expression of indoleamine 2, 3-dioxygenase (IDO1); conditions: HeLa cells, pIC50, read-out: IDO1_HELA_PXC50 (converted)
Summary of the method: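 Compound potency reported as pIC50 from kynurenine/internal-standard ratio (RapidFire MS) in supernatant of IFN-γ-induced (10 nM) HeLa cells, 5,000 per well, after 2 days' treatment with 11-point dilutions. Cytotoxicity in the same format by luminescent ATP detection, reported as pCC50.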

T1 sequence (P14902 whole entry): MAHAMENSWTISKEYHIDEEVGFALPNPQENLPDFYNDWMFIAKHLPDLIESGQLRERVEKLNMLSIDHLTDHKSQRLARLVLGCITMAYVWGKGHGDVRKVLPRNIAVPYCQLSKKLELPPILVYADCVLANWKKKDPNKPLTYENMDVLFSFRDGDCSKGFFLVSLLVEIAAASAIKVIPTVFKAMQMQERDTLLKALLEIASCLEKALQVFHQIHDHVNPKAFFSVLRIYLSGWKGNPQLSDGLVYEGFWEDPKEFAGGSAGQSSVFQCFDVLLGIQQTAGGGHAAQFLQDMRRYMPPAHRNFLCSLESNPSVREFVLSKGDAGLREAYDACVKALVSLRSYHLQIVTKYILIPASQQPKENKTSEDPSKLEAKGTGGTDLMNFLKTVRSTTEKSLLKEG

SMILES | IC50 [3] | IC50 [4] | HELA_IDO1_TOX_PXC50 [1] | PBMC TOX PXC50 [2]
CC(C)CN(c1ccc([C@H](C)CC(=O)O)cc1Nc1cccc(Cl)n1)C1CCCCC1 [example 169, (3R)-3-{3-[(6-chloropyridin-2-yl)amino]-4-[cyclohexyl(2-methylpropyl)amino]phenyl}butanoic acid] | 0.00794 µM | 0.0251 µM | <5 | <5
CC(C)CN(c1ccc(-c2ccccc2C(=O)O)cc1Nc1nc(C(N)=O)ns1)C1CCCCC1 [Example 91, 3′-((3-carbamoyl-1,2,4-thiadiazol-5-yl)amino)-4′-(cyclohexyl(isobutyl)amino)-[1,1′-biphenyl]-2-carboxylic acid] | 0.01 µM | 0.02 µM | <5 | <5
CC(C)CN(c1ccc([C@H](C)CC(=O)O)cc1Nc1nnc(C(C)C)[nH]1)C1CCOCC1 [example 212, (3R)-3-{4-[(2-methylpropyl)(oxan-4-yl)amino]-3-{[5-(propan-2-yl)-4H-1,2,4-triazol-3-yl]amino}phenyl}butanoic acid] | 0.0631 µM | 0.2 µM | <5 | <5
CC(C)CN(c1ccc(C(C)CC(=O)O)cc1NC1=NC(=O)[C@H](C)N1)C1CCCCC1 (stereo partly drawn) [example 164, 3-{4-[cyclohexyl(2-methylpropyl)amino]-3-{[(5S)-5-methyl-4-oxo-4,5-dihydro-1H-imidazol-2-yl]amino}phenyl}butanoic acid] | 0.316 µM | 0.631 µM | <5 | <5
CC(C)CN(c1ccc(C(C)CC(=O)O)cc1NC1=NC(=O)[C@@H](c2ccccc2)N1)C1CCCCC1 (stereo partly drawn) [example 155, 3-{4-[cyclohexyl(2-methylpropyl)amino]-3-{[(5R)-4-oxo-5-phenyl-4,5-dihydro-1H-imidazol-2-yl]amino}phenyl}butanoic acid] | 1.58 µM | 1 µM | <5 | <5
CC(C)CN(c1ccc(-c2ccccc2C(=O)O)cc1Nc1nc(C(F)(F)F)cs1)C1CCCCC1 [example 299, 4′-[cyclohexyl(2-methylpropyl)amino]-3′-{[4-(trifluoromethyl)-1,3-thiazol-2-yl]amino}-[1,1′-biphenyl]-2-carboxylic acid] | 0.00631 µM | 0.0158 µM | <5 | <5
CC(C)CN(c1ccc(-c2ccccc2C(=O)O)cc1Nc1nc(C(F)(F)F)ns1)[C@H]1CC[C@@H](O)CC1 [example 279, 4′-[(2-methylpropyl)[(1s,4s)-4-hydroxycyclohexyl]amino]-3′-{[3-(trifluoromethyl)-1,2,4-thiadiazol-5-yl]amino}-[1,1′-biphenyl]-2-carboxylic acid] | 0.02 µM | 0.1 µM | <5 | <5
COCCc1nnc(Nc2cc([C@H](C)CC(=O)O)ccc2N(CC(C)C)C2CCCCC2)[nH]1 [example 214, (3R)-3-{4-[cyclohexyl(2-methylpropyl)amino]-3-{[5-(2-methoxyethyl)-4H-1,2,4-triazol-3-yl]amino}phenyl}butanoic acid] | 0.0126 µM | 0.0126 µM | <5 | <5
CC(C)CN(c1ccc([C@H](C)CC(=O)O)cc1Nc1nc(C(F)(F)F)cs1)C1CCOCC1 [Example 22, (R)-3-(4-(Isobutyl(tetrahydro-2H-pyran-4-yl)amino)-3-((4-(trifluoromethyl)thiazol-2-yl)amino)phenyl)butanoic Acid] | 0.00251 µM | 0.00251 µM | <5 | <5
CC(C)CN(c1ccc(C(C)(C)CC(=O)O)cc1Nc1nc(C(F)(F)F)ns1)C1CCOCC1 [Example 1, 3-(4-(isobutyl(tetrahydro-2H-pyran-4-yl)amino)-3-((3-(trifluoromethyl)-1,2,4-thiadiazol-5-yl)amino)phenyl)-3-methylbutanoic Acid] | 0.000794 µM | 0.00398 µM | <5 | <5
CC(C)CN(c1ccc(C(C)CC(=O)O)cc1NC1=NC(=O)[C@H](c2ccccc2)N1)C1CCCCC1 (stereo partly drawn) [example 165, 3-{4-[cyclohexyl(2-methylpropyl)amino]-3-{[(5S)-4-oxo-5-phenyl-4,5-dihydro-1H-imidazol-2-yl]amino}phenyl}butanoic acid] | 1.58 µM | 0.794 µM | <5 | <5
CC(C)CN(c1ccc(-c2ccccc2C(=O)O)cc1Nc1nc(C(F)(F)F)ns1)[C@H]1CC[C@H](O)CC1 [Example 112, 4′-(((1r,4r)-4-hydroxycyclohexyl) (isobutyl)amino)-3′-((3-(trifluoromethyl)-1,2,4-thiadiazol-5-yl)amino)-[1,1′-biphenyl]-2-carboxylic Acid] | 0.00794 µM | 0.0158 µM | <5 | 6.1
CC(C)CN(c1ccc(C(C)OCC(=O)O)cc1Nc1nc2ccccc2[nH]1)C1CCCCC1 (stereo not shown) [example 173, 2-(1-{3-[(1H-1,3-benzodiazol-2-yl)amino]-4-[cyclohexyl(2-methylpropyl)amino]phenyl}ethoxy)acetic acid] | 0.0251 µM | 0.02 µM | <5 | <5

Continued, in another order:

IC50 [3] | IC50 [4] | SMILES | HELA_IDO1_TOX_PXC50 [1] | PBMC TOX PXC50 [2]
0.794 µM | 1 µM | CC(C)CN(CC(C)C)c1ccc(C(C)CC(=O)O)cc1NC1CCCCC1 (stereo not shown) [example 157, 3-{4-[bis(2-methylpropyl)amino]-3-(cyclohexylamino)phe-nyl}butanoic acid] | <5 | <5
7.94 µM | > 10 µM | CC(C)CN(CC(C)C)c1ccc(C(C)CC(=O)O)cc1Nc1ncccn1 (stereo not shown) [example 156, 3-{4-[bis(2-methylpropyl)amino]-3-[(pyrimidin-2-yl)amino]phenyl}butanoic acid] | <5 | <5
0.000794 µM | 0.002 µM | CC[C@H](CC(=O)O)c1ccc(N(CC(C)C)C2CCCCC2)c(Nc2nc(C(F)(F)F)ns2)c1 [Example 38, (R)-3-(4-(cyclohexyl(isobutyl)amino)-3-((3-(trifluoromethyl)-1,2,4-thiadiazol-5-yl)amino)phenyl)pentanoic Acid] | <5 | <5
0.01 µM | 0.0316 µM | CC(C)CN(CC(C)C)c1ccc([C@H](C)CC(=O)NS(C)(=O)=O)cc1Nc1nc(C(F)(F)F)ns1 [Example 109, (R)-3-(4-(diisobutylamino)-3-((3-(trifluoromethyl)-1,2,4-thiadiazol-5-yl)amino)phenyl)-N-(methylsulfonyl)butanamide] | <5 | <5
0.02 µM | 0.1 µM | CNC(=O)N1CCC(N(CC(C)C)c2ccc([C@H](C)CC(=O)O)cc2Nc2nc(C(F)(F)F)ns2)CC1 [example 262, (3R)-3-(4-{[1-(methylcarbamoyl)piper-idin-4-yl](2-methylpropyl)amino}-3-{[3-(trifluoromethyl)-1,2,4-thiadiazol-5-yl]amino}phenyl)butanoic acid] | <5 | <5
0.002 µM | 0.00631 µM | CO[C@H]1CC[C@@H](N(CC(C)C)c2ccc([C@H](C)CC(=O)O)cc2Nc2n[nH]c(Cl)n2)CC1 [Example 61, (R)-3-(3-((5-chloro-1H-1,2,4-triazol-3-yl)amino)-4-(isobutyl((cis)-4-methoxycyclohexyl)amino)phenyl)butanoic Acid] | <5 | <5
0.01 µM | 0.0398 µM | COCC(=O)N1CCC(N(CC(C)C)c2ccc([C@H](C)CC(=O)O)cc2Nc2nc(C(F)(F)F)ns2)CC1 [Example 72, (R)-3-(4-(isobutyl(1-(2-methoxyacetyl)piperidin-4-yl)amino)-3-((3-(trifluoromethyl)-1,2,4-thiadiazol-5-yl)amino)phenyl)butanoic Acid] | <5 | <5
0.000501 µM | 0.00501 µM | CC[C@H](CC(=O)O)c1ccc(N(CC(C)C)C2CCCCC2)c(Nc2nc(Cl)ns2)c1 [Example 42] | <5 | <5
0.00251 µM | 0.0126 µM | CC[C@H](CC(=O)O)c1ccc(N(CC(C)C)CC(C)C)c(Nc2nc(Cl)ns2)c1 [Example 40, (R)-3-(3-((3-chloro-1,2,4-thiadiazol-5-yl)amino)-4-(diisobutylmino)phenyl)pentanoic Acid] | <5 | <5
